Key:
Myzus persicae = assay: Myzus test (MYZUPE spray treatment); type: in vivo; conditions: 500 g/ha, Chinese cabbage discs, after 6 days
Experimental: Myzus test (MYZUPE Spray Treatment) Solvent: 78 parts by weight of acetone • • 1.5 parts by weight of dimethylformamide Emulsifier: 0.5 part by weight of alkylaryl polyglycol ether To prepare an appropriate active ingredient preparation, 1 part by weight of active ingredient is mixed with the stated amounts of solvent and emulsifier, and the concentrate is diluted with emulsifier-containing water to the desired concentration. Discs of Chinese cabbage (Brassica pekinensis) infested by all stages of the green peach aphid (Myzus persicae) are sprayed with an active ingredient preparation of the desired concentration. After 6 days, the efficacy in % is determined. 100% means that all of the aphids have been destroyed; 0% means that none of the aphids have been destroyed.

Phaedon cochleariae = assay: Phaedon test (PHAECO spray treatment); type: in vivo; conditions: 500 g/ha, Chinese cabbage discs, after 7 days
Experimental: Phaedon Test ([…] Spray Treatment) Solvent: 78.0 parts by weight of acetone • • 1.5 parts by weight of dimethylformamide Emulsifier: 0.5 part by weight of alkylaryl polyglycol ether To prepare an appropriate active ingredient preparation, 1 part by weight of active ingredient is mixed with the stated amounts of solvent and emulsifier, and the concentrate is diluted with emulsifier-containing water to the desired concentration. Discs of Chinese cabbage (Brassica pekinensis) are sprayed with an active ingredient preparation of the desired concentration and, after drying, populated with larvae of the mustard beetle (Phaedon cochleariae). After 7 days, the efficacy in % is determined. 100% means that all beetle larvae have been killed; 0% means that none of the beetle larvae have been killed.

Tetranychus urticae = assay: Tetranychus test, OP-resistant (TETRUR spray treatment); type: in vivo; conditions: 500 g/ha, bean leaf discs, after 6 days
Experimental: Tetranychus Test, OP-resistant (TETRUR Spray Treatment)
Solvent: 78.0 parts by weight of acetone • • 1.5 parts by weight of dimethylformamide
Emulsifier: 0.5 part by weight of alkylaryl polyglycol ether
To prepare an appropriate active ingredient preparation, 1 part by weight of active ingredient is mixed with the stated amounts of solvent and emulsifier, and the concentrate is diluted with emulsifier-containing water to the desired concentration. Discs of bean leaves (Phaseolus vulgaris) infested by all stages of the red spider mite (Tetranychus urticae) are sprayed with an active ingredient preparation of the desired concentration. After 6 days, the efficacy in % is determined. 100% means that all spider mites have been killed; 0% means that none of the spider mites have been killed.

[1] = logP by reversed-phase HPLC (EEC Directive 79/831 Annex V.A8); type: physicochemical
Source text: [table] The calibration is effected with unbranched alkan-2-ones (having 3 to 16 carbon atoms) with known log P values (log P values determined on the basis of the retention times by linear interpolation between two successive alkanones).

Spodoptera frugiperda = Spodoptera frugiperda test (SPODFR spray treatment); type: in vivo; conditions: 500 g/ha, maize leaf discs, after 7 days
Experimental: Spodoptera frugiperda Test (SPODFR Spray Treatment) Solvent: 78.0 parts by weight of acetone • • 1.5 parts by weight of dimethylformamide Emulsifier: 0.5 part by weight of alkylaryl polyglycol ether To prepare an appropriate active ingredient preparation, 1 part by weight of active ingredient is mixed with the stated amounts of solvent and emulsifier, and the concentrate is diluted with emulsifier-containing water to the desired concentration. Discs of maize leaves (Zea mays) are sprayed with an active ingredient preparation of the desired concentration and, after drying, populated with caterpillars of the armyworm (Spodoptera frugiperda). After 7 days, the efficacy in % is determined. 100% means that all caterpillars have been killed; 0% means that none of the caterpillars have been killed.

Boophilus microplus = Boophilus microplus test (BOOPMI injection); type: in vivo; conditions: 20 μg/animal, injection into abdomen, after 7 days, laying of fertile eggs
Experimental: Boophilus microplus Test (BOOPMI Injection) Solvent: Dimethyl Sulphoxide To prepare an appropriate active ingredient formulation, 10 mg of active ingredient are mixed with 0.5 ml of solvent and the concentrate is diluted with solvent to the desired concentration. The active ingredient solution is injected into the abdomen (Boophilus microplus), and the animals are transferred into dishes and stored in a climate-controlled room. The efficacy is assessed by laying of fertile eggs. After 7 days, the efficacy in % is determined. 100% means that none of the ticks has laid any fertile eggs.

Ctenocephalides felis = Ctenocephalides felis test (CTECFE); type: in vivo; conditions: 100 ppm in citrated cow's blood, after 2 days
Experimental: Ctenocephalides felis Test ([…]) Solvent: 1 Part by Weight of Dimethyl Sulphoxide For the purpose of preparing an appropriate active ingredient formulation, 10 mg of active ingredient are mixed with 0.5 ml of dimethyl sulphoxide. A portion of the concentrate is diluted with citrated cow's blood and the desired concentration is established. About 20 unfed adult fleas (Ctenocephalides felis) are introduced into a chamber closed at the top and bottom with gauze. A metal cylinder, the bottom of which is closed with Parafilm, is placed onto the chamber. The cylinder contains the blood/active ingredient preparation, which can be imbibed by the fleas through the Parafilm membrane. After 2 days, the kill in % is determined. 100% means that all fleas have been killed; 0% means that none of the fleas have been killed.

Lucilia cuprina larvae = assay: Lucilia cuprina test (LUCICU); type: in vivo; conditions: 100 ppm, treated horse meat, after 2 days
Experimental: (§1) Lucilia cuprina Test (LUCICU) Solvent: Dimethyl Sulphoxide To prepare an appropriate active ingredient formulation, 10 mg of active ingredient are mixed with 0.5 ml of dimethyl sulphoxide and the concentrate is diluted with water to the desired concentration. Vessels containing horse meat treated with the active ingredient preparation of the desired concentration are populated with about 20 Lucilia cuprina larvae. After 2 days, the kill in % is determined. 100% means that all of the larvae have been killed; 0% means that none of the larvae have been killed.

Musca domestica = Musca domestica test; type: in vivo; conditions: 100 ppm, after 2 days
Experimental: as §1, with “Musca domestica” for “Lucilia cuprina”, “Test” for “Test (LUCICU)”, “a sponge” for “horse meat”, “adult Musca domestica.” for “about 20 Lucilia cuprina larvae.”, “flies” for “larvae”

[2] = * LC-MS, acidic range, pH 2.7, 0.1% aqueous formic acid / acetonitrile

C=C(C)c1nn(-c2nccnc2OC)c(N)c1-c1cc(Cl)cc(Cl)c1 [Ex. 167]
efficacy (Myzus persicae): 100%
efficacy (Phaedon cochleariae): 100%
efficacy (Tetranychus urticae): 100%
log P [1, 2]: 3.79*

COc1nccnc1-n1nc(C(F)(F)F)c(-c2cc(Br)c3c(c2)OCCCO3)c1N [Ex. 131]
efficacy (Spodoptera frugiperda): 100%
efficacy (Phaedon cochleariae): 100%
efficacy (Boophilus microplus): 100%
efficacy (Tetranychus urticae): 100%
efficacy (kill) (Ctenocephalides felis): 100%
efficacy (kill) (Lucilia cuprina larvae): 100%
efficacy (kill) (Musca domestica): 100%
log P [1, 2]: 3.32*

COc1nccnc1-n1nc(C(F)(F)C(F)(F)F)c(-c2cc(F)cc(C(F)(F)F)c2)c1N [Ex. 21]
efficacy (Spodoptera frugiperda): 100%
efficacy (Myzus persicae): 100%
efficacy (Phaedon cochleariae): 100%
efficacy (Boophilus microplus): 100%
efficacy (Tetranychus urticae): 100%
efficacy (kill) (Lucilia cuprina larvae): 100%
efficacy (kill) (Musca domestica): 100%
log P [1, 2]: 4.23*

COc1nccnc1-n1nc(C(F)(F)F)c(-c2cc(Cl)c3c(c2)OCCCO3)c1N [Ex. 136]
efficacy (Phaedon cochleariae): 100%
efficacy (Boophilus microplus): 100%
efficacy (kill) (Ctenocephalides felis): 100%
efficacy (kill) (Lucilia cuprina larvae): 100%
log P [1, 2]: 3.25*

COc1nccnc1-n1nc(C(F)(F)C(F)F)c(-c2cc(Cl)cc(C(F)(F)F)c2)c1N [Ex. 59]
efficacy (Spodoptera frugiperda): 83%
efficacy (Myzus persicae): 100%
efficacy (Phaedon cochleariae): 100%
efficacy (Tetranychus urticae): 100%
log P [1, 2]: 4.05*

CCC(OC)c1nn(-c2nccnc2OC)c(N)c1-c1ccc(Cl)c(Cl)c1 (centres unmarked) [Ex. 3]
efficacy (Phaedon cochleariae): 100%
efficacy (Boophilus microplus): 100%
efficacy (Tetranychus urticae): 100%
efficacy (kill) (Lucilia cuprina larvae): 100%

COc1nccnc1-n1nc(C(F)(F)C(F)(F)C(F)(F)F)c(-c2cc(Cl)cc(C(F)(F)F)c2)c1N [Ex. 46]
efficacy (Spodoptera frugiperda): 100%
efficacy (Myzus persicae): 80%
efficacy (Phaedon cochleariae): 100%
efficacy (Boophilus microplus): 100%
efficacy (Tetranychus urticae): 80%
efficacy (kill) (Ctenocephalides felis): 80%
efficacy (kill) (Lucilia cuprina larvae): 100%
log P [1, 2]: 4.91*

C=Cc1nn(-c2nccnc2OC)c(N)c1-c1cc(Cl)cc(C(F)(F)F)c1 [Ex. 9]
efficacy (Spodoptera frugiperda): 100%
efficacy (Myzus persicae): 100%
efficacy (Phaedon cochleariae): 100%
efficacy (Boophilus microplus): 100%
efficacy (Tetranychus urticae): 100%
efficacy (kill) (Lucilia cuprina larvae): 100%
log P [1, 2]: 3.63*

C=CCN(CC=C)c1c(-c2cc(Cl)cc(C(F)(F)F)c2)c(C(F)(F)F)nn1-c1nccnc1OC [Ex. 103]
efficacy (Myzus persicae): 80%
log P [1, 2]: 4.08*

COc1ccc(CNc2c(-c3cc(Cl)cc(C(F)(F)F)c3)c(C(F)(F)F)nn2-c2nccnc2OC)cc1 [Ex. 41]
efficacy (Myzus persicae): 90%
efficacy (Phaedon cochleariae): 100%
efficacy (kill) (Ctenocephalides felis): 80%
efficacy (kill) (Lucilia cuprina larvae): 100%
log P [1, 2]: 5.13*

COc1nccnc1-n1nc(C(F)(F)F)c(-c2cc(Cl)cc(Cl)c2)c1N [Ex. 6]
efficacy (Spodoptera frugiperda): 83%
efficacy (Phaedon cochleariae): 100%
efficacy (Boophilus microplus): 100%
efficacy (kill) (Ctenocephalides felis): 90%
efficacy (kill) (Lucilia cuprina larvae): 100%
efficacy (kill) (Musca domestica): 80%
log P [1, 2]: 3.95*

COc1nccnc1-n1nc(C(F)(F)F)c(-c2cc(Cl)cc(C(F)(F)F)c2)c1N [Ex. 10]
efficacy (Boophilus microplus): 100%
efficacy (kill) (Ctenocephalides felis): 90%
efficacy (kill) (Lucilia cuprina larvae): 100%
efficacy (kill) (Musca domestica): 100%
log P [1, 2]: 4.07*

COc1nccnc1-n1nc(C(F)(F)F)c(-c2cc(Cl)c(N(C)C)c(C(F)(F)F)c2)c1N [Ex. 123]
efficacy (Spodoptera frugiperda): 100%
efficacy (Phaedon cochleariae): 100%
efficacy (Tetranychus urticae): 80%
log P [1, 2]: 4.72*

COc1nccnc1-n1nc(C(F)(F)F)c(-c2cc(F)c(OC)c(Cl)c2)c1N [Ex. 124]
efficacy (Spodoptera frugiperda): 100%
efficacy (Phaedon cochleariae): 100%
efficacy (Tetranychus urticae): 90%
log P [1, 2]: 3.47*
log P ([1]; *** LC-MS, neutral range, pH 7.8, 0.001 molar aqueous ammonium hydrogencarbonate / acetonitrile): 3.5***;

COc1nccnc1-n1nc(C(F)(F)F)c(-c2cc(Cl)c3c(c2)COCO3)c1N [Ex. 135]
efficacy (Spodoptera frugiperda): 80%
efficacy (Phaedon cochleariae): 100%
efficacy (Boophilus microplus): 100%
efficacy (kill) (Ctenocephalides felis): 100%
efficacy (kill) (Lucilia cuprina larvae): 100%
log P [1, 2]: 3.02*

COc1cc(-c2c(C(F)(F)C(F)F)nn(-c3nccnc3OC)c2N)cc(C(F)(F)F)c1OC [Ex. 157]
efficacy (Spodoptera frugiperda): 100%
efficacy (Phaedon cochleariae): 100%
efficacy (Tetranychus urticae): 100%
log P [1, 2]: 3.58*

CCOc1cc(-c2c(C(F)(F)F)nn(-c3nccnc3OC)c2N)cc(Cl)c1OCC(F)(F)F [Ex. 144]
efficacy (Spodoptera frugiperda): 100%
efficacy (Phaedon cochleariae): 100%
efficacy (Tetranychus urticae): 100%
log P [1, 2]: 4.21*

COc1cc(-c2c(C(F)(F)F)nn(-c3nccnc3OC)c2N)cc(C(F)(F)F)c1OC [Ex. 89]
efficacy (Spodoptera frugiperda): 100%
efficacy (Phaedon cochleariae): 100%
efficacy (Boophilus microplus): 100%
efficacy (kill) (Ctenocephalides felis): 100%
efficacy (kill) (Lucilia cuprina larvae): 100%
efficacy (kill) (Musca domestica): 80%
log P [1, 2]: 3.56*

COc1nccnc1-n1nc(C(F)(F)F)c(-c2cc(Cl)cc(C(F)(F)F)c2)c1NCc1ccccc1 [Ex. 33]
efficacy (Myzus persicae): 80%
efficacy (Phaedon cochleariae): 100%
efficacy (Tetranychus urticae): 90%
log P [1, 2]: 5.28*

COc1nccnc1-n1nc(C(C)(C)F)c(-c2cc(Cl)cc(Cl)c2)c1N [Ex. 168]
efficacy (Spodoptera frugiperda): 100%
efficacy (Myzus persicae): 100%
efficacy (Phaedon cochleariae): 100%
efficacy (Tetranychus urticae): 100%
log P [1, 2]: 3.77*

CSc1nccnc1-n1nc(C(F)(F)F)c(-c2cc(Cl)cc(C(F)(F)F)c2)c1N [Ex. 28]
efficacy (Spodoptera frugiperda): 100%
efficacy (Phaedon cochleariae): 100%
efficacy (Boophilus microplus): 100%
efficacy (kill) (Lucilia cuprina larvae): 100%
log P [1, 2]: 4.9*

CCOc1nccnc1-n1nc(C(F)(F)F)c(-c2cc(Cl)cc(C(F)(F)F)c2)c1N [Ex. 12]
efficacy (Phaedon cochleariae): 100%
efficacy (Boophilus microplus): 100%
efficacy (Tetranychus urticae): 90%
efficacy (kill) (Ctenocephalides felis): 90%
efficacy (kill) (Lucilia cuprina larvae): 100%
efficacy (kill) (Musca domestica): 100%
log P [1, 2]: 4.47*
